# Experimental data from patent US20240158446A1, “CYCLIC COMPOUND HAVING SELECTIVE INHIBITORY ACTION ON KRAS OVER HRAS AND NRAS” (CHUGAI SEIYAKU KABUSHIKI KAISHA, priority 2021, published 2024).
# Like-named read-outs stand apart in the source and are kept apart here. Where a SMILES comes first, the peptide text is derived from it. Bridges are numbered along the chain shown (N, C = ends). [ ]: non-standard residue; d: D form. The star is where a group is joined. hPhe(3-Cl-4-CF3) = N[C@@H](CCc1ccc(C(F)(F)F)c(Cl)c1)C(=O)O; NPrPhe(4-CF3) = CCCN[C@@H](Cc1ccc(C(F)(F)F)cc1)C(=O)O; NMeGly(cPent) = CN[C@H](C(=O)O)C1CCCC1; Pro(4,4-F2) = O=C(O)[C@@H]1CC(F)(F)CN1; NMeD = CN[C@@H](CC(=O)O)C(=O)O; NMeL = CN[C@@H](CC(C)C)C(=O)O; Morpholide = C1CN(*)CCO1; Ac5c = NC1(C(=O)O)CCCC1; Aze = O=C(O)[C@@H]1CCN1; Sar = CNCC(=O)O
# Columns and labels:
# [1] = biological target: GDP-bound NRAS wild-type protein (Homo sapiens, UniProt P01111); assay: Binding to NRAS by surface plasmon resonance (SPR), Single Cycle Kinetics
# Sequence of GDP-bound NRAS wild-type protein (P01111 whole entry): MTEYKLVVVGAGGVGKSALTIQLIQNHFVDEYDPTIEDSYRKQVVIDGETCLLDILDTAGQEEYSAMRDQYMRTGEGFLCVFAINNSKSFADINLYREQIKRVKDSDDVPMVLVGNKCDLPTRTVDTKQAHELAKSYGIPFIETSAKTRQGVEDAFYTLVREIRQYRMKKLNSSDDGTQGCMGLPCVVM
# [2] = biological target: GDP-bound KRAS wild-type protein (Homo sapiens, UniProt P01116); assay: Binding to KRAS by surface plasmon resonance (SPR), Single Cycle Kinetics; settings: GDP-bound KRAS wild-type protein, read-out: KRAS KD
# Sequence of GDP-bound KRAS wild-type protein (P01116 whole entry): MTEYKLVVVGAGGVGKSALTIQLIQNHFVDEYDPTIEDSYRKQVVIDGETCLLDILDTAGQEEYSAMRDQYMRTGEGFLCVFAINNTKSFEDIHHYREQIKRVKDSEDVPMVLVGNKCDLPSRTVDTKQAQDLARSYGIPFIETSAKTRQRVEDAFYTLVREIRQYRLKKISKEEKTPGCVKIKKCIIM
# [3] = biological target: GDP-bound HRAS wild-type protein (Homo sapiens, UniProt P01112); assay: Binding to HRAS by surface plasmon resonance (SPR), Single Cycle Kinetics
# Sequence of GDP-bound HRAS wild-type protein (P01112 whole entry): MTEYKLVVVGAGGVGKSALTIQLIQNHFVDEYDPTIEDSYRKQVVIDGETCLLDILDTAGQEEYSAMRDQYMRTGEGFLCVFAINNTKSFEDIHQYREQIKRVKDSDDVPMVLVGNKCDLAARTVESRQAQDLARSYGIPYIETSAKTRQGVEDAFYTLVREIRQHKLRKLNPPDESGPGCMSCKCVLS
# [4] = SPR, GDP-bound NRAS wild-type protein vs GDP-bound KRAS wild-type protein
# [5] = SPR, GDP-bound HRAS wild-type protein vs GDP-bound KRAS wild-type protein
# [6] = SPR Single Cycle Kinetics, 1:1 binding model
"Kd ([2]; SPR, Single Cycle Kinetics) [nM]","Kd [2, 6] [nM]",SMILES,"NRAS/KRAS (ratio of KD value for NRAS to KD value for KRAS) [1, 4]","HRAS/KRAS (ratio of KD value for HRAS to KD value for KRAS) [3, 5]","NRAS/KRAS (ratio of KD value with respect to GDP-bound NRAS wild-type protein to KD value with respect to KRAS) ([1]; SPR KD ratio NRAS/KRAS, class symbols)","HRAS/KRAS (ratio of KD value with respect to GDP-bound HRAS wild-type protein to KD value with respect to KRAS) ([3]; SPR KD ratio HRAS/KRAS, class symbols)","NRAS/KRAS (ratio of KD value with respect to NRAS to KD value with respect to KRAS) [1, 4]","HRAS/KRAS (ratio of KD value with respect to HRAS to KD value with respect to KRAS) [3, 5]"
0.13,,CCO[C@@H]1C[C@H]2C(=O)NC3(CC(C)(C)C3)C(=O)N(C)[C@@H](C(CC)CC)C(=O)N(C)[C@H](C(=O)N(C)C)CC(=O)N(C)[C@H]3CCCC/C=C/c4ccc(cc4)C[C@@H](C(=O)N(C)CC(=O)N[C@@H](CCc4ccc(Cl)c(Cl)c4)C(=O)N2C1)N1CC/C=C\C[C@@H](C1=O)N(C)C(=O)CN(C)C(=O)[C@H]([C@@H](C)CC)NC3=O [PP3045],AA (a compound having 20 or more is denoted as AA),A (a compound having 10 or more and less than 20 is denoted as A),,,,
,0.094,"CCCN1C(=O)[C@@H]2CCN2C(=O)CN(C)C(=O)[C@H]([C@@H](C)CC)NC(=O)[C@H](CC(C)C)N(C)C(=O)C[C@@H](C(=O)N2CCOCC2)N(C)C(=O)[C@H](C2CCCC2)N(C)C(=O)C2(CCCC2)NC(=O)[C@@H]2CC(F)(F)CN2C(=O)[C@H](CCc2ccc(C(F)(F)F)c(Cl)c2)NC(=O)CN(C)C(=O)[C@@H]1Cc1ccc(C(F)(F)F)cc1 [PP0408] ([NMeL]I[Sar][Aze][NPrPhe(4-CF3)][Sar][hPhe(3-Cl-4-CF3)][Pro(4,4-F2)][Ac5c][NMeGly(cPent)][NMeD]-Morpholide; lactam N-11)",C (A compound having a KD ratio of 0.1 or more and less than 3 is denoted as C),B (a compound having 3 or more and less than 10 is denoted as B),,,,
,0.26,CCC[C@H]1C(=O)N[C@@H]([C@@H](C)CC)C(=O)N(C)CC(=O)N(C)[C@H]2C/C=C\CCN(C2=O)[C@@H](Cc2ccc(C(F)(F)F)cc2)C(=O)N(C)CC(=O)N[C@@H](CCc2ccc(Cl)c(C(F)(F)F)c2)C(=O)N2C[C@H](OCC)C[C@H]2C(=O)NC2(CC(C)(C)C2)C(=O)N(C)[C@@H](C(CC)CC)C(=O)N(C)[C@H](C(=O)N(C)C)CC(=O)N1C [PP2785],,,AA (a compound having 20 or more is denoted as AA),A (a compound having 10 or more and less than 20 is denoted as A),,
,0.026,CCO[C@@H]1C[C@H]2C(=O)NC3(CCC3)C(=O)N(C)[C@@H](C3CCCC3)C(=O)N(C)[C@H](C(=O)N3CCOCC3)CC(=O)N(C)[C@@H](CC)C(=O)N[C@@H]([C@@H](C)CC)C(=O)N(C)CC(=O)N(C)[C@H]3CCCCN(C3=O)[C@@H](Cc3ccc(C(F)(F)F)cc3)C(=O)N(C)CC(=O)N[C@@H](CCc3cc(F)c(C(F)(F)F)c(F)c3)C(=O)N2C1 [PP0708],,,,,B (a compound having 3 or more and less than 10 is denoted as B),B (a compound having 3 or more and less than 10 is denoted as B)
0.1,,CCO[C@@H]1C[C@H]2C(=O)NC3(CC(C)(C)C3)C(=O)N(C)[C@@H](C(CC)CC)C(=O)N(C)[C@H](C(=O)N(C)C)CC(=O)N(C)[C@H]3CCCCCCc4ccc(cc4)C[C@@H](C(=O)N(C)CC(=O)N[C@@H](CCc4ccc(C(F)(F)F)c(OC)c4)C(=O)N2C1)N1CC/C=C\C[C@@H](C1=O)N(C)C(=O)CN(C)C(=O)[C@H]([C@@H](C)CC)NC3=O [PP3032],AA (a compound having 20 or more is denoted as AA),A (a compound having 10 or more and less than 20 is denoted as A),,,,
0.04,,CC[C@H](C)[C@@H]1NC(=O)[C@H](CC(C)C)N(C)C(=O)C[C@@H](C(=O)N2CCOCC2)N(C)C(=O)[C@H](C2CCCC2)N(C)C(=O)C2(CCC2)NC(=O)[C@@H]2[C@H]3C[C@H]3CN2C(=O)[C@H](CCc2cc(F)c(C(F)(F)F)c(F)c2)NC(=O)CN(C)C(=O)[C@H](Cc2ccc(C(F)(F)F)cc2)N2CCCC[C@@H](C2=O)N(C)C(=O)CN(C)C1=O [PP0810],B (a compound having 3 or more and less than 10 is denoted as B),B (a compound having 3 or more and less than 10 is denoted as B),,,,
